In brackets after ≈: the same amount, converted by molar mass. Like-named read-outs stand apart in the source and are kept apart here.
What was measured:
Type in all cases: cell-based
[1] = test system: Candida albican ATCC 64550; experiment: In vitro antifungal activity (MIC80), Candida albican ATCC 64550; details: Candida, ATCC64550; Table 2, 64550; read-out: Minimal inhibitory concentration (MIC80)
Procedure, shortened: (§1)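 Broth dilution in RPMI 1640 with 2% (v/v) final DMSO, test range 0.25 to 256 […]. Yeast inoculum 1.0×10^3–5.0×10^3 CFU/ml, growth read with alamarBlue, run twice. MIC80 is the lowest concentration giving 80% growth reduction against untreated control.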

[2] = test system: Aspergillus terreus ATCC 28301; experiment: In vitro antifungal activity (MIC80), Aspergillus terreus ATCC 28301; details: Aspergillus terreus, ATCC28301; Table 3, ATCC 28301; read-out: Minimal inhibitory concentration (MIC80)
Description: (§2) In vitro antifungal activities of the inventive antifungal compounds were evaluated using test strains including Candida albican (ATCC 90873, 204276, 62342, 64124, 64550, 96901, MYA-573, MYA-574, MYA-575, MYA-576, MYA-1003) and Aspergillus fumigatus (ATCC 16424). Test samples and positive control samples were prepared by dissolving the inventive compounds and comparative compounds, i.e., amphotericin B, fluconazole and itraconazole, in DMSO, respectively, and each successively diluted with medium to obtain test and positive control solutions having test compound concentrations of 0.125 μg/ml to a maximum concentration not generating turbidity. Minimal inhibitory concentration (MIC80) of each compound was determined as the lowest concentration of the test compounds required to reduce growth by 80% relative to a control strain not treated.
(§3) 3) Preparation of test samples: the inventive compounds and comparative compounds were each diluted with DMSO to obtain 1 to 2 ml of a test sample in a concentration of 100-folds of the determining maximum concentration (256 μg/ml).
(§4) The test samples were each successively diluted with RPMI 1640 to obtain test solutions having concentrations of […] in a 12×75 mm sterilized disposable culture tube. The final concentration of DMSO was adjusted to […] (v/v).
(§5) Candida albican strains were each subcultured in Sabourad Dextrose Agar, YM Agar or Potato Dextrose Agar medium at 35° C. for 2˜3 days. In the case of yeasts, a single colony was taken from prominent colonies and suspended in 0.85% sterile physiological saline solution and the turbidity of the suspension was adjusted to 80˜82% at 530 nm, and then diluted 50-fold with RPMI 1640 medium to 1.0×10^3˜5.0×10^3 CFU/ml. The turbidity of fungi was adjusted to 80˜82% and the suspension was diluted 50-fold to […]. Aspergillus fumigatus strains were subcultured in Malt Extract Agar for 7˜10 days, and a single colony was taken from prominent colonies and suspended in 0.85% sterile physiological saline solution and the suspension was adjusted to 0.108 at 530 nm, and then diluted 1000-fold with RPMI 1640 medium to 0.4×10^2˜5×10^4 CFU/ml. The turbidity of fungi was adjusted to 80˜82% and the suspension was diluted 50-fold to 0.4102˜0.5104 CFU/ml.
(§6) The strain solutions thus obtained were each seeded into a sterilized 96-well microplate, 0.1 ml of each test solution were added thereto, and […] of alamarblue was treated to each well (Biosource, #DAL1100). This procedure was repeated 2 times.
(§7) Minimal inhibitory concentration (MIC80) of each compound was determined as the lowest concentration of the test compounds required to reduce growth by 80% relative to a control strain not treated.
(§8) MIC80 of each of the compounds of which antifungal activities can be confirmed by Table 2 was determined using other test strains, i.e., Aspergillus fumigatus ATCC 16424 and MYA-1163, Aspergillus terreus ATCC 28301, Aspergillus flavus ATCC MYA-1004, and Aspergillus niger ATCC 9142.

[3] = test system: Aspergillus flavus ATCC MYA-1004; experiment: In vitro antifungal activity (MIC80), Aspergillus flavus ATCC MYA-1004; details: Aspergillus flavus; Table 3, MYA-1004; read-out: Minimal inhibitory concentration (MIC80)
Description: as §2, §3, §4, §5, §6, §7, §8

[4] = test system: Candida albican ATCC 96901; experiment: In vitro antifungal activity (MIC80), Candida albican ATCC 96901; details: Candida, ATCC96901; Table 2, ATCC 96901; read-out: Minimal inhibitory concentration (MIC80)
Procedure, shortened: as §1

[5] = test system: Candida albican ATCC MYA-576; experiment: In vitro antifungal activity (MIC80), Candida albican ATCC MYA-576; details: Candida; Table 2, MYA 576; read-out: Minimal inhibitory concentration (MIC80)
Procedure, shortened: as §1

[6] = test system: Candida albican ATCC 62342; experiment: In vitro antifungal activity (MIC80), Candida albican ATCC 62342; details: Candida, ATCC62342; Table 2, 62342; read-out: Minimal inhibitory concentration (MIC80)
Procedure, shortened: as §1

[7] = test system: Candida albican ATCC MYA-575; experiment: In vitro antifungal activity (MIC80), Candida albican ATCC MYA-575; details: Candida; Table 2, MYA 575; read-out: Minimal inhibitory concentration (MIC80)
Procedure, shortened: as §1

[8] = test system: Aspergillus fumigatus MYA-1163; experiment: In vitro antifungal activity (MIC80), Aspergillus fumigatus MYA-1163; details: Aspergillus fumigatus, MYA1163; Table 3, MYA-1163; read-out: Minimal inhibitory concentration (MIC80)
Description: as §2, §3, §4, §5, §6, §7, §8

[9] = test system: Aspergillus niger ATCC 9142; experiment: In vitro antifungal activity (MIC80), Aspergillus niger ATCC 9142; details: Aspergillus niger, ATCC9142; Table 3, ATCC 9142; read-out: Minimal inhibitory concentration (MIC80)
Description: as §2, §3, §4, §5, §6, §7, §8

[10] = test system: Candida albican ATCC MYA-573; experiment: In vitro antifungal activity (MIC80), Candida albican ATCC MYA-573; details: Candida; Table 2, MYA 573; read-out: Minimal inhibitory concentration (MIC80)
Procedure, shortened: as §1

[11] = test system: Candida albican ATCC MYA-574; experiment: In vitro antifungal activity (MIC80), Candida albican ATCC MYA-574; details: Candida; Table 2, MYA 574; read-out: Minimal inhibitory concentration (MIC80)
Procedure, shortened: as §1

[12] = test system: Aspergillus fumigatus (ATCC 16424); experiment: In vitro antifungal activity (MIC80), Aspergillus fumigatus ATCC 16424; details: Aspergillus fumigatus, read-out: Minimal inhibitory concentration (MIC80)
Description: as §2
(§9) 1) Test strain: Candida albican ATCC 90873, 204276, 62342, 64124, 64550, 96901, MYA-573, MYA-574, MYA-575, MYA-576, MYA-1003, and Aspergillus fumigatus ATCC 16424 were commercially obtained from The American Type Culture Collection (ATCC) and subcultured in CHEMON Co. Ltd. (amphotericin B was commercially purchased from Sigma, and fluconazole and itraconazole were prepared according to methods described in British Patent No. 2,099,818; and U.S. Pat. No. 4,267,179, respectively).
(§10) 2) Medium and culture condition: Candida albican was cultured in Sabourad Dextrose Agar, YM Agar or Potato Dextrose Agar according to ATCC information at a temperature of 37° C., 35° C., 30° C. or 25° C. Aspergillus fumigatus was cultured in Malt Extract Agar or Potato Dextrose Agar at a temperature ranging from 24 to 27° C.
as §3, §4
(§11) 5) Preparation of strain solution and inoculation
as §5, §6, §7, §8

[13] = test system: Candida albican ATCC MYA-1003; experiment: In vitro antifungal activity (MIC80), Candida albican ATCC MYA-1003; details: Candida; Table 2, MYA 1003; read-out: Minimal inhibitory concentration (MIC80)
Procedure, shortened: as §1

[14] = test system: Candida albican ATCC 90873; experiment: In vitro antifungal activity (MIC80), Candida albican ATCC 90873; details: Candida, ATCC90873; Table 2, ATCC 90873; read-out: Minimal inhibitory concentration (MIC80)
Procedure, shortened: as §1

[15] = test system: Candida albican ATCC 64124; experiment: In vitro antifungal activity (MIC80), Candida albican ATCC 64124; details: Candida, ATCC64124; Table 2, 64124; read-out: Minimal inhibitory concentration (MIC80)
Procedure, shortened: as §1

[16] = test system: Candida albican ATCC 204276; experiment: In vitro antifungal activity (MIC80), Candida albican ATCC 204276; details: ATCC204276, Table 2, 204276, read-out: Minimal inhibitory concentration (MIC80)
Description: as §2, §9, §10, §3, §4, §11, §5, §6, §7

SMILES	MIC80 [1] [µg/mL]	MIC80 [2] [µg/mL]	MIC80 [3] [µg/mL]	MIC80 [4] [µg/mL]	MIC80 [5] [µg/mL]	MIC80 [6] [µg/mL]	MIC80 [7] [µg/mL]	MIC80 [8] [µg/mL]	MIC80 [9] [µg/mL]	MIC80 [10] [µg/mL]	MIC80 [11] [µg/mL]	MIC80 ([12]; ATCC16424, Table 2, ATCC 16424) [µg/mL]	MIC80 ([12]; ATCC16424, Table 3, ATCC 16424) [µg/mL]	MIC80 [13] [µg/mL]	MIC80 [14] [µg/mL]	MIC80 [15] [µg/mL]	MIC80 [16] [µg/mL]
CCC(C)n1ncn(-c2ccc(N3CCN(c4ccc(OCC5COC(Cn6cncn6)(c6ccc(Cl)cc6Cl)O5)cc4)CC3)cc2)c1=O (stereo not shown) [I, itraconazole, reference compound]	0.5 (≈ 0.709 µM)	0.25 (≈ 0.354 µM)	0.25 (≈ 0.354 µM)	> 128	0.125 (≈ 0.177 µM)	0.25 (≈ 0.354 µM)	0.125 (≈ 0.177 µM)	0.5 (≈ 0.709 µM)	1 (≈ 1.42 µM)	0.5 (≈ 0.709 µM)	> 128	0.25 (≈ 0.354 µM)	0.125 (≈ 0.177 µM)	> 128	0.125 (≈ 0.177 µM)	> 128	
C[C@@H](N1CCN(c2nc3ccc(Cl)cc3o2)CC1)[C@](O)(Cn1cncn1)c1ccc(F)cc1F [Example 6, (2R,3R)-3-(4-(6-chlorobenzooxazol-2-yl)piperazin-1-yl)-2-(2,4-difluorophenyl)-1-(1H-1,2,4-triazol-1-yl)butan-2-ol]	0.5 (≈ 1.02 µM)	0.5 (≈ 1.02 µM)	0.25 (≈ 0.511 µM)	2 (≈ 4.09 µM)	0.125 (≈ 0.256 µM)	0.25 (≈ 0.511 µM)	0.125 (≈ 0.256 µM)	0.25 (≈ 0.511 µM)	1 (≈ 2.05 µM)	0.25 (≈ 0.511 µM)	0.25 (≈ 0.511 µM)	0.125 (≈ 0.256 µM)	0.125 (≈ 0.256 µM)	> 128	0.125 (≈ 0.256 µM)	4 (≈ 8.18 µM)	
C[C@@H](N1CCN(c2nc3ccc(Cl)cc3s2)CC1)[C@](O)(Cn1cncn1)c1ccc(F)cc1F [Example 4, (2R,3R)-3-(4-(6-chlorobenzothiazol-2-yl)piperazin-1-yl)-2-(2,4-difluorophenyl)-1-(1H-1,2,4-triazol-1-yl)butan-2-ol]	0.5 (≈ 0.99 µM)	1 (≈ 1.98 µM)	1 (≈ 1.98 µM)	2 (≈ 3.96 µM)	0.125 (≈ 0.248 µM)	0.125 (≈ 0.248 µM)	0.125 (≈ 0.248 µM)	1 (≈ 1.98 µM)	2 (≈ 3.96 µM)	0.125 (≈ 0.248 µM)	0.25 (≈ 0.495 µM)	0.5 (≈ 0.99 µM)	0.5 (≈ 0.99 µM)	> 128	0.125 (≈ 0.248 µM)	8 (≈ 15.8 µM)	
OC(Cn1cncn1)(Cn1cncn1)c1ccc(F)cc1F [F, fluconazole, reference compound]	32 (≈ 104 µM)	> 128	> 128	> 128	64 (≈ 209 µM)	8 (≈ 26.1 µM)	16 (≈ 52.2 µM)	> 128	> 128	> 128	> 128	> 128	> 128	> 128	4 (≈ 13.1 µM)	> 128	
CC(N1CCN(C(=O)c2cn3c(C(=O)c4ccccc4)cnc3s2)CC1)C(O)(Cn1cncn1)c1ccc(F)cc1F [Example 55, (4-((2R,3R)-3-(2,4-difluorophenyl)-3-hydroxy-4-(1H-1,2,4-triazol-1-yl)butan-2-yl)piperazin-1-yl)(5-benzoyl-imidazo[2,1,-b]-thiazol-2-yl)methanone]	4 (≈ 6.76 µM)			8 (≈ 13.5 µM)	0.125 (≈ 0.211 µM)	0.5 (≈ 0.845 µM)	8 (≈ 13.5 µM)			1 (≈ 1.69 µM)	8 (≈ 13.5 µM)	1 (≈ 1.69 µM)		> 128	0.125 (≈ 0.211 µM)	16 (≈ 27 µM)	0.125 (≈ 0.211 µM)
COc1ccc(C(=O)c2cnc3sc(C(=O)N4CCN(C(C)C(O)(Cn5cncn5)c5ccc(F)cc5F)CC4)cn23)cc1 (stereo not shown) [Example 57]	4 (≈ 6.43 µM)			8 (≈ 12.9 µM)	0.125 (≈ 0.201 µM)	0.5 (≈ 0.804 µM)	8 (≈ 12.9 µM)			1 (≈ 1.61 µM)	8 (≈ 12.9 µM)	0.5 (≈ 0.804 µM)		> 128	0.125 (≈ 0.201 µM)	8 (≈ 12.9 µM)	0.125 (≈ 0.201 µM)
C[C@@H](N1CCN(c2nc3ccccc3o2)CC1)[C@](O)(Cn1cncn1)c1ccc(F)cc1F [Example 1, (2R,3R)-3-(4-(benzooxazol-2-yl)piperazin-1-yl)-2-(2,4-difluorophenyl)-1-(1H-1,2,4-triazol-1-yl)butan-2-ol]	1 (≈ 2.2 µM)			4 (≈ 8.8 µM)	0.125 (≈ 0.275 µM)	0.125 (≈ 0.275 µM)	32 (≈ 70.4 µM)			1 (≈ 2.2 µM)	32 (≈ 70.4 µM)	0.5 (≈ 1.1 µM)		128 (≈ 282 µM)	0.125 (≈ 0.275 µM)	4 (≈ 8.8 µM)	0.125 (≈ 0.275 µM)
C[C@@H](N1CCN(Cc2cccs2)CC1)[C@](O)(Cn1cncn1)c1ccc(F)cc1F [Example 44, (2R,3R)-2-(2,4-difluorophenyl)-3-(4-((thiophen-2-yl)methyl)piperazin-1-yl)-1-(1H-1,2,4-triazol-1-yl)butan-2-ol]	4 (≈ 9.23 µM)			64 (≈ 148 µM)	0.125 (≈ 0.288 µM)	4 (≈ 9.23 µM)	32 (≈ 73.8 µM)			2 (≈ 4.61 µM)	32 (≈ 73.8 µM)	0.5 (≈ 1.15 µM)		> 128	0.125 (≈ 0.288 µM)	32 (≈ 73.8 µM)	0.125 (≈ 0.288 µM)

Source: patent publication US20100144712A1 (priority 2007, published 2010)
